Measured values as given in US20020137162A1, “Antisense oligonucleotide inhibition of specific histone deacetylase isoforms” (priority 2000, published 2002).
d = 2'-deoxy (DNA); m = 2'-O-methyl

How the values were obtained:
human HDAC-4 = experiment: Antisense ODN screen, HDAC-4 RNA, T24 cells; assay type: cell-based; conditions: 100 nM, 24 hours, Northern blot
Protocol: Seventeen phosphorothioate ODNs containing sequences complementary to the 5′ or 3′ UTR of the human HDAC-4 gene (GenBank Accession No. AB006626) were screened as above. […] HDAC-4 MM1 and MM2 oligonucleotides were created as controls; compared to the antisense oligonucleotides, they each contain a 6-base mismatch.
(§1) Briefly, human A549 and/or T24 human bladder carcinoma cells were seeded in 10 cm tissue culture dishes one day prior to oligonucleotide treatment. The cell lines were obtained from the American Type Culture Collection (ATCC) (Manassas, Va.) and were grown under the recommended culture conditions. Before the addition of the oligonucleotides, cells were washed with PBS (phosphate buffered saline). Next, lipofectin transfection reagent (GIBCO BRL Mississauga, Ontario, Calif.), at a concentration of 6.25 μg/ml, was added to serum free OPTIMEM medium (GIBCO BRL, Rockville, Md.), which was then added to the cells. The oligonucleotides to be screened were then added directly to the cells (i.e., one oligonucleotide per plate of cells). Mismatched oligonucleotides were used as controls. The same concentration of oligonucleotide (e.g., 50 nM) was used per plate of cells for each oligonucleotide tested.
(§2) Cells were harvested, and total RNAs were analyzed by Northern blot analysis. Briefly, total RNA was extracted using RNeasy miniprep columns (QIAGEN). […]

A549 [1] = experiment: Cell growth inhibition, trypan blue cell count; assay type: cell-based, human; conditions: A549 cancer cells, 50 nM, 72 hours
Protocol: (§3) In order to determine the effect of HDAC OSDNs on cell growth and cell death through apoptosis, A549 or T24 cells, MDAmb231 cells, and HMEC cells (ATCC, Manassas, Va.) were treated with HDAC OSDNs as previously described.
(§4) Cells were harvested and cell numbers counted by trypan blue exclusion using a hemocytometer. Percentage of inhibition was calculated as (100—AS cell numbers/control cell numbers) %.

MDAmb231 [2] = experiment: Cell growth inhibition, trypan blue cell count; assay type: cell-based, human; conditions: MDAmb231 cancer cells, 50 nM, 72 hours
Protocol: as §3, §4

T24 [3] = experiment: Cell growth inhibition, trypan blue cell count; assay type: cell-based, human; conditions: T24 cancer cells, 50 nM, 72 hours
Protocol: as §3, §4

A549 [4] = experiment: Apoptosis, Cell Death Detection ELISA; assay type: cell-based, human; conditions: fold over non-specific background, TSA at 100 ng/ml
Protocol: as §3
(§5) For the apoptosis study, cells were analyzed using the Cell Death Detection ELISA ^PLUSkit (Roche Diagnostic GmBH, Mannheim, Germany) according to the manufacturer's directions. Typically, 10,000 cells were plated in 96-well tissue culture dishes for 2 hours before harvest and lysis. Each sample was analyzed in duplicate. ELISA reading was done using a MR700 plate reader (DYNEX Technology, Ashford, Middlesex, England) at 410 nm. The reference was set at 490 nm.

HMEC [5] = experiment: Apoptosis, Cell Death Detection ELISA; assay type: cell-based, human; conditions: fold over non-specific background, TSA at 100 ng/ml
Protocol: as §3, §5

MDAmb231 [6] = experiment: Apoptosis, Cell Death Detection ELISA; assay type: cell-based, human; conditions: fold over non-specific background, TSA at 100 ng/ml
Protocol: as §3, §5

T24 [7] = experiment: Apoptosis, Cell Death Detection ELISA; assay type: cell-based, human; conditions: fold over non-specific background, TSA at 100 ng/ml
Protocol: as §3, §5

p21 protein = experiment: Western blot of p21 protein in A549 cells; assay type: cell-based, human
Protocol: Experiments were also conducted to examine the affect of HDAC antisense oligonucleotides on HDAC protein expression. In A549 cells, treatment with HDAC-4 antisene oligonucleotides results in a dramatic increase in the level of p21 protein (FIG. 15).

human HDAC-6 = experiment: Antisense ODN screen, HDAC-6 RNA, T24 cells; assay type: cell-based; conditions: 100 nM, 24 hours, Northern blot
Protocol: Thirteen phosphorothloate ODNs containing sequences complementary to the 5′ or 3′ untranslated regions of the human HDAC-6 gene (GenBank Accession No. AJ011972) were screened as above. […] HDAC-6MM oligo was created as a control; compared to the antisense oligo, it contains a 7-base mismatch.
as §1, §2

HDAC-6 protein = experiment: Western blot of HDAC isotype protein expression in A549 cells, HDAC-6; assay type: cell-based, human; conditions: 50 nM, 48 hours
Protocol: (§6) OSDN treatment conditions were as previously described.
(§7) Cells were lysed in buffer containing 1% Triton X-100, 0.5% sodium deoxycholate, 5 mM EDTA, 25 mM Tris-HC1, pH 7.5, plus protease inhibitors. Total protein was quantified by the protein assay reagent from Bio-Rad (Hercules, Calif.). 100 ug of total protein was analyzed by SDS-PAGE. Next, total protein was transferred onto a PVDF membrane and probed with various HDAC-specific primary antibodies. Rabbit anti-HDAC-1 (H-51), anti-HDAC-2 (H-54) antibodies (Santa Cruz Biotechnologies, Santa Cruz, Calif.) were used at 1:500 dilution. Rabbit anti-HDAC-3 antibody (Sigma, St. Louis, Mo.) was used at a dilution of 1:1000. Anti-HDAC-4 antibody was prepared as previously described (Wang, S. H. et al., (1999) Mol. Cell. Biol. 19:7816-27), and was used at a dilution of 1:1000. Anti-HDAC-6 antibody was raised by immunizing rabbits with a GST fusion protein containing a fragment of HDAC-6 protein (amino acid #990 to #1216, GenBank Accession No. AAD29048). Rabbit antiserum was tested and found only to react specifically to the human HDAC-6 isoform. HDAC-6 antiserum was used at 1:500 dilution in Western blots to detect HDAC-6 in total cell lysates. Horse Radish Peroxidase conjugated secondary antibody was used at a dilution of 1:5000 to detect primary antibody binding. […]

HMEC [8] = experiment: Cell growth inhibition, trypan blue cell count; assay type: cell-based, human; conditions: HMEC normal cells, 50 nM, 72 hours
Protocol: as §3, §4

A549 cells = experiment: Growth in soft agar, colony count; assay type: cell-based, human; conditions: colonies counted after three weeks
Protocol: 1.3 g granulated agar (DIDFCO) was added to 100 ml deionized water and boiled in a microwave to sterilize. The boiled agar was held at 55 C until further use. Iscove's Modified Dulbecco×s Medium (GIBCO/BRL), 100× Penicillin-Streptomycin-Glutamine (GIBCO/BRL) and fetal bovine serum (medicorp) were pre-warmed at 37 C. To 50 ml sterile tubes was added 9 ml Isove's medium, 2 ml fetal bovine serum and 0.2 ml 100× Pen-Strep-Gln. Then 9 ml 55 C 1.3% agar was added to each tube. The tube contents were mixed immediately, avoiding air bubbles, and 2.5 ml of the mixture was poured into each sterile 6 cm petri dish to form a polymerized bottom layer. Dishes with polymerized bottom layers were then put in a CO2 incubator at 37 C until further use. In 50 ml sterile tubes were prewarmed at 37 C for each 4 cell lines/samples, 20 ml Iscove's medium, 0.4 ml 100× Pen-Strep-Gln and 8 ml fetal bovine serum. Cells were trypsinized and counted by trypan blue staining and 20,000 cells were aliquotted into a sterile 15 ml tube. To the tube was then added DMEM with low glucose (GIBCO/BRL)+10% fetal bovine serum+Pen-Strep-Gln to a final volume of 1 ml. To the prewarmed 37 C mix in the 50 ml tube was quickly added 8 ml 55 C 1.3% agar, which was then mixed well. […] Plates were wrapped up in foil paper and incubated in a CO2 incubator at 37° C. for three weeks, at which time colonies in agar are counted.

human cancer cells = experiment: Cell growth and apoptosis, summary for cancer cells; assay type: cell-based; conditions: for growth arrest and apoptosis of human cancer cells: Tables 3 and 4
Protocol: as §3, §5, §4

human HDAC-3 = experiment: Antisense ODN screen, HDAC-3 RNA, T24 cells; assay type: cell-based; conditions: 100 nM, 24 hours, Northern blot
Protocol: Twenty-one phosphorothioate ODNs containing sequences complementary to the 5′ or 3′ UTR of the human HDAC-3 gene (GenBank Accession No. AF039703) were screened as above. […] HDAC-3 MM oligonucleotide was created as a control; compared to the antisense oligonucleotide, it contains a 6-base mismatch.
as §1, §2

HDAC-3 protein = experiment: Western blot of HDAC isotype protein expression in A549 cells, HDAC-3; assay type: cell-based, human; conditions: 50 nM, 48 hours
Protocol: as §6, §7

human HDAC-2 = experiment: Antisense ODN screen, HDAC-2 RNA, T24 cells; assay type: cell-based; conditions: 100 nM, 24 hours, Northern blot
Protocol: Twenty-four phosphorothioate ODNs containing sequences complementary to the 5′ or 3′ UTR of the human HDAC-2 gene (GenBank Accession No. U31814) were screened as above. […] HDAC-2 MM was created as a control; compared to the antisense oligo, it contains a 7-base mismatch.
as §1, §2

HDAC-2 protein = experiment: Western blot of HDAC isotype protein expression in A549 cells, HDAC-2; assay type: cell-based, human; conditions: 50 nM, 48 hours
Protocol: as §6, §7

Row | Substance | antisense activity to human HDAC-4 (human HDAC-4) | Growth Inhibition (AS vs. MM) (A549 [1]) | Growth Inhibition (AS vs. MM) (MDAmb231 [2]) | Growth Inhibition (AS vs. MM) (T24 [3]) | Apoptosis After 48 Hour Treatment (A549 [4]) | Apoptosis After 48 Hour Treatment (HMEC [5]) | Apoptosis After 48 Hour Treatment (MDAmb231 [6]) | Apoptosis After 48 Hour Treatment (T24 [7]) | level of p21 protein (p21 protein) | antisense activity to human HDAC-6 (human HDAC-6) | HDAC-6 protein expression (HDAC-6 protein) | Growth Inhibition (AS vs. MM) (HMEC [8]) | growth of A549 cells in soft agar (A549 cells) | growth arrest and apoptosis of human cancer cells (human cancer cells) | antisense activity to human HDAC-3 (human HDAC-3) | HDAC-3 protein expression (HDAC-3 protein) | antisense activity to human HDAC-2 (human HDAC-2) | HDAC-2 protein expression (HDAC-2 protein) | cancer cell growth inhibition (human cancer cells; summary of Table 3)
1 | 5-GCTGCCTGCCGTGCCCACCC-3′ (sugars from the 5' end m4 d12 m4, all phosphorothioate, methylation of C and T or U not given here) [HDAC-4 AS1] | antisense activity | +++ (“+++”: >75% inhibition) | ++ (“++”: 50-75% inhibition) | ++ (“++”: 50-75% inhibition) | +++ (“+++”: 5-8X fold) | − (“−”: <= 2x fold over non-specific background) | ++ (“++”: 3-5X fold) | + (“+”: 2-3X fold) | induces the expression |  |  |  |  |  |  |  |  |  | 
2 | 5′-CAGGCTGGAATGAGCTACAG-3′ (chemistry not given here) [HDAC-6 AS] |  | − (“−”: no inhibition) |  | − (“−”: no inhibition) | − (“−”: <= 2x fold over non-specific background) | − (“−”: <= 2x fold over non-specific background) | − (“−”: <= 2x fold over non-specific background) | − (“−”: <= 2x fold over non-specific background) |  | antisense activity | specifically inhibits | − (“−”: no inhibition) | do not | no effect |  |  |  |  | 
3 | 5′-CGCTTTCCTTGTCATTGACA-3′ (chemistry not given here) [HDAC-3 AS] |  | − (“−”: no inhibition) | − (“−”: no inhibition) | − (“−”: no inhibition) | − (“−”: <= 2x fold over non-specific background) | − (“−”: <= 2x fold over non-specific background) | − (“−”: <= 2x fold over non-specific background) | − (“−”: <= 2x fold over non-specific background) |  |  |  | − (“−”: no inhibition) |  | no effect | antisense activity | specifically inhibits |  |  | 
4 | 5′-GCTGAGCTGTTCTGATTTGG-3′ (chemistry not given here) [HDAC-2 AS] |  |  | − (“−”: no inhibition) |  | − (“−”: <= 2x fold over non-specific background) | − (“−”: <= 2x fold over non-specific background) | − (“−”: <= 2x fold over non-specific background) | − (“−”: <= 2x fold over non-specific background) |  |  |  |  | do not |  |  |  | antisense activity | specifically inhibits | minimal effect
